Test results published in US7989654B2, “High purity bases of 3,3-diphenylpropylamino monoesters” (UCB Pharma GmbH, priority 2003, dated 2011).

Experiments:
[1] = Stirring of fesoterodine base under distilled water, TLC of the aqueous phase; format: physicochemical; settings: covered with distilled water, stirred two days at room temperature
Description: Fesoterodine (107.7 mg (R)-2-(3-Diisopropylamino-1-phenylpropyl)-4-hydroxymethylphenyl isobutyric acid ester, B) is covered with a layer distilled water and stirred at room temperature. After two days of stirring, the reaction batch remains unchanged two-phase.

[2] = Storage stability of fesoterodine base as oil and in polymer matrices; format: physicochemical; settings: storage for 6 months at 5° C.
Description: While, for example, the free base of fesoterodine is decomposed as an oil after storage for 6 months at 5° C. to around 3-4%, a drop in concentration cannot be established or only established essentially to a lesser extent when fesoterodine is incorporated in matrices, which contain polar components. [table]

With `CC(C)C(=O)Oc1ccc(CO)cc1[C@H](CCN(C(C)C)C(C)C)c1ccccc1` [free base of fesoterodine, (R)-2-[3-(1,1-diisopropylamino)-1-phenylpropyl]-4-(hydroxymethyl)phenyl isobutyrate] the “Organic material detectable in the aqueous phase by thin layer chromatography” value [1] was “No organic material (B or E) could be detected” and the “Decomposition during storage as an oil” value [2] was 3-4%.
